The assay concerns the target T1, METTL3/14 (Homo sapiens, UniProt Q86U44).
T1 construct: The enzyme used was full-length his-tagged METTL3; His; made in house
Kind of assay: METTL3/14 methyltransferase assay (METTL3_14 RFMS, RapidFire mass spectrometry).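 Also: recombinant His-tagged METTL3 with FLAG-tagged METTL14 from baculovirus, SAH product quantified by mass spectrometry against isotope-labelled internal standards, 60 min at room temperature, scaled between no-RNA and DMSO-only wells.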 In kind it is biochemical. Particulars: read-out: METTL3_14 RFMS IC50.

Where [1] appears, read: 5 nM METTL3/14, 0.2 μM RNA substrate, 0.5 μM SAM, lower limit of the assay IC50=5 nM, Compounds 63-265.
Setting [2] is: 5 nM METTL3/14, 0.2 μM RNA substrate, 0.5 μM SAM, lower limit of the assay IC50=5 nM, Compounds 1-62.
Setting [3] is: 5 nM METTL3/14, 0.2 μM RNA substrate, 0.5 μM SAM, lower limit of the assay IC50=5 nM, Compounds 266-351.

Structures can show the parent of a compound that is named as a salt. Where two headings read alike, the source gives them in different places.

T1 sequence (Q86U44 whole entry): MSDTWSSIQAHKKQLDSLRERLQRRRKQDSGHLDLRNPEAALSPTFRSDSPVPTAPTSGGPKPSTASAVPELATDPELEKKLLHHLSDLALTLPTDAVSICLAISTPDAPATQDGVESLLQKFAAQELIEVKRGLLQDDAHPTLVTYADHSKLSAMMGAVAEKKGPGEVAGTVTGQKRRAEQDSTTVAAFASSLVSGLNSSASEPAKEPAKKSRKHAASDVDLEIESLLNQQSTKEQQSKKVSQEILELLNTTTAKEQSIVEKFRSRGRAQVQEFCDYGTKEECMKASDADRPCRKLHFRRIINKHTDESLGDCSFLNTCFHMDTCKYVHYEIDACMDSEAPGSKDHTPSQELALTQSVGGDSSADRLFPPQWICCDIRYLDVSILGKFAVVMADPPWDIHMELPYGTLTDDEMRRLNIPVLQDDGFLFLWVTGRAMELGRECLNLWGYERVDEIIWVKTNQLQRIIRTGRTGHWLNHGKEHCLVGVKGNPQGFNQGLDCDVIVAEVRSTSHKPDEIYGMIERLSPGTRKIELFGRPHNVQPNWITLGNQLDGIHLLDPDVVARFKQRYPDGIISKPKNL
T1 sequence (Q9HCE5 whole entry partner): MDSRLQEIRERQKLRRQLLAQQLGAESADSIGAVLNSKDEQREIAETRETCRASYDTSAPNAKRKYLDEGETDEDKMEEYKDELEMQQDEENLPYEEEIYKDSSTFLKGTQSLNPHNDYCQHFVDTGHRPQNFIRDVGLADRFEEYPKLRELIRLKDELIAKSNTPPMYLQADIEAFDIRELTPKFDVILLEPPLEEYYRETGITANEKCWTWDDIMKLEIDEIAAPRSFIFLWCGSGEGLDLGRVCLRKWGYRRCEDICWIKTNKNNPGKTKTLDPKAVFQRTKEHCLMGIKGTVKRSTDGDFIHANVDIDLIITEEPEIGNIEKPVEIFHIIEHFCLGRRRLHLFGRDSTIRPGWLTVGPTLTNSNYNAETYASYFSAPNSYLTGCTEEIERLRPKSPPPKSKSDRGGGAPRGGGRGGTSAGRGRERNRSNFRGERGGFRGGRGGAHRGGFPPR

As a reminder, the IC50 is the concentration that gives 50% inhibition. Consider `CC1(C)CCOC1CNCc1ccc2nc(CNC(=O)c3cc(=O)n4ccccc4n3)cn2c1` (stereo not shown) [Compound 150, N-{[6-({[(3,3-dimethyloxolan-2-yl)methyl]amino}methyl)imidazo[1,2-a]pyridin-2-yl]methyl}-4-oxo-4H-pyrido[1,2-a] pyrimidine-2-carboxamide], for which, under setting [1], the half-maximal inhibitory concentration (IC50) was 29.9 nM.

For the molecule `CNCc1ccc2nc(CNC(=O)c3cccc4[nH]ncc34)cn2c1` [Compound 44, N-({6-[(methylamino)methyl]imidazo[1,2-a]pyridin-2-yl}methyl)-1H-indazole-4-carboxamide dihydrochloride], the 50% inhibitory concentration (IC50) under setting [2] came out at 5050 nM.

Regarding `COc1ccn2cc(CNC(=O)c3cccc4[nH]ncc34)nc2c1` [Compound 7, N-({7-methoxyimidazo[1,2-a]pyridin-2-yl}methyl)-1H-indazole-4-carboxamide], the IC50 under setting [2] is 2670 nM.

For `O=C(NCc1cn2ccc(CNCC3CCCCC3)cc2n1)c1cc(=O)n2ccccc2n1` [Compound 223, N-[(7-{[(cyclohexylmethyl)amino]methyl}imidazo[1,2-a]pyridin-2-yl)methyl]-4-oxo-4H-pyrido[1,2-a]pyrimidine-2-carboxamide], the half-maximal inhibitory concentration (IC50) under setting [1] was 2170 nM.

Consider `O=C(NCc1cn2cc(CNCC3CCCCC3)ccc2n1)c1cc(=O)c2ccc(F)cc2o1` [Compound 180, N-[(6-{[(cyclohexylmethyl)amino]methyl}imidazo [1,2-a]pyridin-2-yl)methyl]-7-fluoro-4-oxo-4H-chromene-2-carboxamide], for which, under setting [1], the half-inhibitory concentration (IC50) turned out to be 889 nM.

On to `CC(NCC1CCCCC1)c1ccc2nc(CNC(=O)c3cc(=O)n4ccccc4n3)cn2c1` (stereo not shown) [Compound 189, N-[(6-{1-[(cyclohexyl-methyl)amino]ethyl}imidazo [1,2-a]pyridin-2-yl)methyl]-4-oxo-4H-pyrido[1,2-a]pyrimidine-2-carboxamide], for which the IC50 under setting [1] stood at 132 nM.

`OCc1ccc2nc(Cn3cc(-c4cncc5[nH]ncc45)nn3)cn2c1` [Example 257, {2-[(4-{1H-pyrazolo[3,4-c]pyridin-4-yl}-1H-1,2,3-triazol-1-yl)methyl]imidazo[1,2-a]pyridin-6-yl}methanol]: the IC50 under setting [1] is 4440 nM.

Turning to `O=C(NCc1cn2cc(CNCC3CCCO3)ccc2n1)c1cc(=O)n2ccccc2n1` (stereo not shown) [Compound 95, 4-oxo-N-{[6-({[(oxolan-2-yl)methyl]amino}methyl)imidazo [1,2-a]pyridin-2-yl]methyl}-4H-pyrido[1,2-a]pyrimidine-2-carboxamide], under setting [1], the IC50 is 74.4 nM.

For `O=C(NCc1cn2cc(CNCC3COCCO3)ccc2n1)c1cc(=O)n2ccccc2n1` (stereo not shown) [Compound 108, N-{[6-({[(1,4-dioxan-2-yl)methyl]amino}methyl)imidazo [1,2-a]pyridin-2-yl]methyl}-4-oxo-4H-pyrido[1,2-a] pyrimidine-2-carboxamide], the IC50 under setting [1] came to 241 nM.

As for `O=Cc1ccc2nc(CNC(=O)c3cc(=O)n4ccccc4n3)cn2c1` [Example 49, N-[(6-formylimidazo[1,2-a]pyridin-2-yl)methyl]-4-oxo-pyrido[1,2-a]pyrimidine-2-carboxamide], the IC50 under setting [2] came out at 1040 nM.

With `CC1(CNCc2ccc3nc(CNC(=O)c4cc(=O)n5ccccc5n4)cn3c2)CC1` [Compound 121, N-{[6-({[(1-methylcyclopropyl)methyl]amino}methyl)imidazo [1,2-a]pyridin-2-yl]methyl}-4-oxo-4H-pyrido [1,2-a]pyrimidine-2-carboxamide], the IC50 under setting [1] was determined as 16.8 nM.

For `O=C(NCc1cn2cc(C3(NCC4CCCCC4)CC3)ccc2n1)c1cc(=O)n2ccccc2n1` [Compound 245, N-[(6-{1-[(cyclohexylmethyl)amino]cyclopropyl}imidazo[1,2-a]pyridin-2-yl)methyl]-4-oxo-4H-pyrido[1,2-a]pyrimidine-2-carboxamide], the 50% inhibitory concentration (IC50) under setting [1] is 735 nM.

As to `CC(C)(C)CN1CCOCC1c1ccc2nc(CNC(=O)c3cc(=O)n4ccccc4n3)cn2c1` (stereo not shown) [Example 232, N-({6-[4-(2,2-dimethylpropyl)morpholin-3-yl]imidazo[1,2-a]pyridin-2-yl}methyl)-4-oxo-4H-pyrido[1,2-a]pyrimidine-2-carboxamide], the IC50 under setting [1] worked out at 8370 nM.

Regarding `O=C(NCc1cn2cc(NCc3cccnc3)ccc2n1)c1cccc2[nH]ncc12` [Compound 32, N-[(6-{[(pyridin-3-yl)methyl]amino}imidazo[1,2-a]pyridin-2-yl)methyl]-1H-indazole-4-carboxamide], the IC50 under setting [2] was 7340 nM.

As to `CC(C)CNCc1ccc2nc(CNC(=O)c3cc(=O)n4ccccc4n3)cn2c1` [Compound 151, N-[(6-{[(2-methylpropyl)amino]methyl}imidazo[1,2-a]pyridin-2-yl)methyl]-4-oxo-4H-pyrido[1,2-a] pyrimidine-2-carboxamide], the IC50 under setting [1] was determined as 16.3 nM.

Regarding `O=C(NCc1cn2cc(CNCC3CCCCC3)ccc2n1)c1cc(=O)c2ccc(Cl)cc2o1` [Compound 171, 7-chloro-N-[(6-{[(cyclohexylmethyl)amino]methyl}imidazo[1,2-a]pyridin-2-yl)methyl]-4-oxo-4H-chromene-2-carboxamide], under setting [1], the IC50 is 293 nM.

As for `CC(C)(C)[C@@H]1COC[C@H](c2ccc3nc(CNC(=O)c4cc(=O)n5ccccc5n4)cn3c2)N1` [Example 229, N-({6-[(3S,5R)-5-tert-butylmorpholin-3-yl]imidazo[1,2-a]pyridin-2-yl}methyl)-4-oxo-4H-pyrido[1,2-a]pyrimidine-2-carboxamide], under setting [1], the IC50 worked out at 100 nM.

With `CC1CN(Cc2ccc3nc(CNC(=O)c4cc(=O)n5ccccc5n4)cn3c2)CC(C)O1` (stereo not shown) [Compound 199, N-({6-[(2,6-dimethylmorpholin-4-yl)methyl]imidazo[1,2-a]pyridin-2-yl}methyl)-4-oxo-4H-pyrido[1,2-a]pyrimidine-2-carboxamide], the concentration for half-maximal inhibition (IC50) under setting [1] was 1860 nM.

Regarding `O=C(NCc1cn2cc(CNCCC3CCCCO3)ccc2n1)c1cc(=O)n2ccccc2n1` (stereo not shown) [Compound 154, N-{[6-({[2-(oxan-2-yl)ethyl]amino}methyl)imidazo [1,2-a]pyridin-2-yl]methyl}-4-oxo-4H-pyrido[1,2-a] pyrimidine-2-carboxamide], under setting [1], the IC50 is 1180 nM.

Take `O=C(NCc1cn2cc(Br)ccc2n1)c1cccc2[nH]ncc12` [Compound 3, N-({6-bromoimidazo[1,2-a]pyridin-2-yl}methyl)-1H-indazole-4-carboxamide]: the half-maximal inhibitory concentration (IC50) under setting [2] was determined as 4660 nM.

On to `CC(C)(C)CNCc1ccc2nc(CNC(=O)c3cc(=O)n4ccccc4n3)cn2c1` [Compound 113, N-[(6-{[(2,2-dimethylpropyl)amino]methyl}imidazo[1,2-a]pyridin-2-yl)methyl]-4-oxo-4H-pyrido[1,2-a] pyrimidine-2-carboxamide], for which the IC50 under setting [1] was determined as 16.4 nM.

For the molecule `O=C(NCc1cn2cc(CNCC3CCCCC3)ccc2n1)c1cc(=O)n2c(n1)CCCC2` [Compound 175, N-[(6-{[(cyclohexylmethyl)amino]methyl}imidazo[1,2-a]pyridin-2-yl)methyl]-4-oxo-4H,6H,7H,8H, 9H-pyrido[1,2-a]pyrimidine-2-carboxamide], the half-maximal inhibitory concentration (IC50) under setting [1] was determined as 214 nM.

Consider `CCCNCc1ccc2nc(CNC(=O)c3cc(=O)n4ccccc4n3)cn2c1` [Compound 149, 4-oxo-N-({6-[(propylamino)methyl]imidazo [1,2-a]pyridin-2-yl}methyl)-4H-pyrido[1,2-a] pyrimidine-2-carboxamide], for which the 50% inhibitory concentration (IC50) under setting [1] was 40.2 nM.

In the case of `O=C(NCCO)c1cc(-c2cn(Cc3cn4cc(CNCC5CCC5)ccc4n3)nn2)c2cn[nH]c2c1` [Example 301], under setting [3], the 50% inhibitory concentration (IC50) was found to be 233 nM.

In the case of `O=C(NCc1cn2cc([C@H]3COC[C@@H](C4CCCCC4)N3)ccc2n1)c1cccc2[nH]ncc12` (racemic) [Example 231, N-({6-[(3S,5R)-5-cyclohexylmorpholin-3-yl]imidazo[1,2-a]pyridin-2-yl}methyl)-1H-indazole-4-carboxamide], the IC50 was 1220 nM.

Consider `C[C@@H](NCc1ccc2nc(CNC(=O)c3cc(=O)n4ccccc4n3)cn2c1)c1ccccc1` [Compound 75, 4-oxo-N-{[6-({[(1R)-1-phenylethyl]amino}methyl)imidazo[1,2-a]pyridin-2-yl]methyl}-4H-pyrido[1,2-a]pyrimidine-2-carboxamide], for which the IC50 under setting [1] worked out at 48.1 nM.

With `O=C(NCc1cn2cc(CN3CC4CC3CO4)ccc2n1)c1cc(=O)n2ccccc2n1` (stereo not shown) [Compound 349, N-{[6-({2-oxa-5-azabicyclo[2.2.1]heptan-5-yl}methyl)imidazo[1,2-a]pyridin-2-yl]methyl}-4-oxo-4H-pyrido[1,2-a]pyrimidine-2-carboxamide], the 50% inhibitory concentration (IC50) under setting [3] came out at 303 nM.

For `O=C(NCc1cn2cc(CNCC3(F)CCCC3)ccc2n1)c1cc(=O)n2ccccc2n1` [Compound 198, N-{[6-({[(1-fluorocyclopentyl)methyl]amino}methyl)imidazo [1,2-a]pyridin-2-yl]methyl}-4-oxo-4H-pyrido [1,2-a]pyrimidine-2-carboxamide], under setting [1], the concentration for half-maximal inhibition (IC50) came to 44.1 nM.

As to `O=C(NCc1cn2ccc(CNCC3CC3)cc2n1)c1cc(=O)n2ccccc2n1` [Compound 224, N-[(7-{[(cyclopropylmethyl)amino]methyl}imidazo[1,2-a]pyridin-2-yl)methyl]-4-oxo-4H-pyrido[1,2-a]pyrimidine-2-carboxamide], the half-inhibitory concentration (IC50) under setting [1] came to 1870 nM.

`O=C(NCc1cn2cc(C(O)c3ccccc3)ccc2n1)c1cccc2[nH]ncc12` (stereo not shown) [Compound 48, N-({6-[hydroxy(phenyl)methyl]imidazo [1,2-a]pyridin-2-yl}methyl)-1H-indazole-4-carboxamide]: the IC50 under setting [2] came to 2040 nM.

`Cc1ccc2nc(Cn3cc(-c4cccc5[nH]ncc45)nn3)cn2c1` [Compound 69, 4-[1-({6-methylimidazo[1,2-a]pyridin-2-yl}methyl)-1H-1,2,3-triazol-4-yl]-1H-indazole]: the IC50 under setting [1] came to 1340 nM.

The values are drawn from US12358915B2, “METTL3 inhibitory compounds” (STORM THERAPEUTICS LTD., priority 2019, dated 2025).
